From paper PMC12692346, “Imidazolinium-Based NHC–Metal Complexes Overcome Both Cancer Multidrug Resistance and Cisplatin Resistance In Vitro” (International Journal of Molecular Sciences, 2025)

Tests used:
[1] = tested on: Mes-Sa/B1 mOrange; assay: Triple coculture fluorescence cytotoxicity test, ABCB1-transfected MDR line; format: cell-based, human; settings: for RR_B1 resistance ratio (IC50_MDR line / IC50_parental line) of Mes-Sa/B1: Mes-Sa/B1 vs Mes-Sa; for IC50: triple coculture, 144 h incubation, fluorescence readout
Experimental: (§1) All synthesized complexes and representatives of the respective ligands (Lb, Lc, SIPr, IPr) were tested in a triple coculture of uterine sarcoma cell lines, consisting of the parental Mes-Sa cell line, and its MDR derivatives Mes-Sa/B1 and Mes-Sa/Dx5, transfected or selected in doxorubicin to overexpress P-glycoprotein, respectively (Figure 2a–c, Table S2). Each cell line expresses a distinct fluorescent protein (mCherry, mOrange, and eGFP, respectively), and the total fluorescence of a well is proportional to the cell number, allowing the assessment of compound cytotoxicity.
(§2) In a triple coculture system, cell lines expressing different fluorescent proteins were seeded in the same well. Cell lines (Mes-Sa mCherry, Mes-Sa/B1 mOrange, Mes-Sa/Dx5 eGFP [25]) were admixed and seeded on 384-well plates at a density of 3 × 800 cells/well (1:1:1 ratio), resulting in an overall total of 2400 cells. The next day, serially diluted compounds were added to the wells. Liquid handling was managed by a Hamilton StarLet pipetting robot. After 144 h of incubation, the fluorescence of mCherry (ex/em: 585/610 nm), mOrange (ex/em: 545/567 nm) and eGFP (ex/em: 485/510 nm) was recorded with an EnSpire plate reader (PerkinElmer, Waltham, MA, USA).
(§3) pIC50 values derived from both co- and monoculture systems were determined by a custom program written in C# [25], then average and standard deviations were calculated and transformed to IC50 values. Every compound was tested in at least 3 independent experiments in triplicates.

[2] = tested on: CST murine breast cancer cell line; assay: Monoculture PrestoBlue cytotoxicity test, CST; format: cell-based, mouse; settings: 120 h exposure
Experimental: (§4) CST, a drug-naïve murine breast cancer cell line, and cisplatin-resistant cells CST-2/3 were seeded in monoculture into 384-well plates (Corning Inc., Corning, NY, USA) at a density of 2500 cells per well using automated liquid-handling. The cells were preincubated for 24 h to ensure adherence, followed by the addition of serially diluted compounds to a final well volume of 60 µL. Following 120 h of continuous drug exposure, cell viability was quantified using the PrestoBlue viability assay (Thermo Fisher Scientific, Waltham, MA, USA) after 1 h incubation at 555 nm excitation and 585 nm emission wavelengths.
as §3

[3] = tested on: CST-2/3 cisplatin-resistant cells; assay: Monoculture PrestoBlue cytotoxicity test, cisplatin-resistant CST-2/3; format: cell-based, mouse; settings: for RR_CST resistance ratio (IC50_CST-2/3 / IC50_CST): CST-2/3 vs CST; for IC50: monoculture, 120 h exposure, PrestoBlue
Experimental: as §4, §3

[4] = tested on: MSCL-1 mesenchymal stem cell-like cell line; assay: PrestoBlue cytotoxicity test, non-malignant MSCL-1; format: cell-based, human; settings: for IC50: 72 h treatment, PrestoBlue; for MSCL-1 / CST ratio (IC50_MSCL-1/IC50_cancer line): MSCL-1 vs CST; for MSCL-1 / Mes-Sa ratio (IC50_MSCL-1/IC50_cancer line): MSCL-1 vs Mes-Sa
Experimental: The MSCL-1 line was seeded on 96-well plates with 15,000 cells/well density, and the following day, it was treated with the compounds for 72 h, when cell viability was assessed using a PrestoBlue viability assay.
as §3

[5] = tested on: Mes-Sa mCherry uterine sarcoma cell line; assay: Triple coculture fluorescence cytotoxicity test, parental line; format: cell-based, human; settings: 144 h incubation, fluorescence readout
Experimental: as §1, §2, §3

[6] = tested on: Mes-Sa/Dx5 eGFP; assay: Triple coculture fluorescence cytotoxicity test, doxorubicin-selected MDR line; format: cell-based, human; settings: for RR_Dx5 resistance ratio (IC50_MDR line / IC50_parental line) of Mes-Sa/Dx5: Mes-Sa/Dx5 vs Mes-Sa; for IC50: triple coculture, 144 h incubation, fluorescence readout
Experimental: as §1, §2, §3

[7] = tested on: CST cells; assay: H2DCFDA intracellular ROS assay in CST; format: cell-based, mouse; settings: 25 µM, 4 h incubation; for increase in intracellular ROS: vs 0 h
Experimental: (§5) Intracellular ROS production was assessed by the H2DCFDA—Cellular ROS Assay Kit (ab113851, Abcam, Cambridge, UK) according to the manufacturer’s instructions. Briefly, 20,000 cells (Mes-Sa and CST) were seeded on 96-well plates 1 day prior to the experiment. The cells were washed and incubated with H2DCFDA solution for 45 min in the dark. Following an additional washing step, test compounds were added in complete, phenol red free medium (FluoroBrite™, Thermo Fisher Scientific), at a final concentration of 25 µM. Fluorescence of 2′,7′-dichlorofluorescein (DCF) was measured at 484 nm/535 nm excitation/emission wavelengths. Data were normalized to baseline (0 h) values and represent at least three independent experiments.

[8] = tested on: Mes-Sa cells; assay: H2DCFDA intracellular ROS assay in Mes-Sa; format: cell-based, human; settings: 25 µM, 4 h incubation; for increase in intracellular ROS: vs 0 h
Experimental: as §5

Row | Compound | RR_B1 resistance ratio (IC50_MDR line / IC50_parental line) of Mes-Sa/B1 [1] | IC50 [1] [nM] | IC50 [2] [nM] | RR_CST resistance ratio (IC50_CST-2/3 / IC50_CST) [3] | IC50 [3] [nM] | IC50 [4] [nM] | MSCL-1 / CST ratio (IC50_MSCL-1/IC50_cancer line) [4] | MSCL-1 / Mes-Sa ratio (IC50_MSCL-1/IC50_cancer line) [4] | IC50 [5] [nM] | RR_Dx5 resistance ratio (IC50_MDR line / IC50_parental line) of Mes-Sa/Dx5 [6] | IC50 [6] [nM] | intracellular ROS induction compared to serum-containing medium (in words) [8] | also measured
1 | N.N.[Cl][Pt][Cl] [Cisplatin] | 0.8 | 2130 | 150 | 5.5 | 820 | 17000 | 113.6 | 6.8 | 2520 | 2.3 | 5910 | – | –
2 | CC(C)c1cccc(C(C)C)c1N1[C](=[Au][Cl])N([C@@H](C)c2ccccc2)C[C@@H]1C(C)(C)C [Compound 3b] | 2.4 | 14800 | 22900 | 1.1 | 25100 | – | – | – | 6170 | 1.6 | 9920 | – | –
3 | CC(C)c1cccc(C(C)C)c1N1[C](=[Au][Cl])N([C@@H](C)c2cccc3ccccc23)C[C@@H]1C(C)(C)C [Compound 3d] | 2.8 | 21900 | 6170 | 1.4 | 8380 | – | – | – | 7810 | 2.5 | 19400 | – | –
4 | C=C[CH2][Pd]([Cl])=[C]1N([C@H](C)c2ccccc2)C[C@H](C(C)(C)C)N1c1c(C(C)C)cccc1C(C)C [Compound 4c] | 2.4 | 5620 | 1100 | 1.2 | 1350 | – | – | – | 2340 | 4.3 | 10100 | – | –
5 | CC(C)c1cccc(C(C)C)c1N1CCN(c2c(C(C)C)cccc2C(C)C)[C]1=[Cu][Cl] [Compound 5a] | 1.0 | 440 | 180 | 1.5 | 270 | 1150 | 6.5 | 2.7 | 420 | 1.0 | 430 | – | increase in intracellular ROS [7]: 88%; increase in intracellular ROS [8]: 72%
6 | CC(C)c1cccc(C(C)C)c1N1CCN(c2c(C(C)C)cccc2C(C)C)[C]1=[Ag][Cl] [Compound 6a] | 1.6 | 980 | 530 | 1.7 | 880 | 1240 | 2.3 | 2.0 | 610 | 1.5 | 890 | did not significantly induce | increase in intracellular ROS [7]: 107%
7 | CC(C)c1cccc(C(C)C)c1N1CCN(c2c(C(C)C)cccc2C(C)C)[C]1=[Au][Cl] [Compound 7a] | 1.7 | 14400 | 12200 | 1.0 | 12600 | 25700 | 2.1 | 3.0 | 8450 | 2.2 | 18500 | did not significantly induce | intracellular ROS induction compared to untreated control (in words) [7]: No significant ROS induction
8 | C=C[CH2][Pd]([Cl])=[C]1N(c2c(C(C)C)cccc2C(C)C)CCN1c1c(C(C)C)cccc1C(C)C [Compound 8a] | 2.0 | 5250 | 1520 | 1.3 | 2000 | 2980 | 2.0 | 1.1 | 2680 | 2.2 | 5960 | – | –
9 | CC(C)c1cccc(C(C)C)c1N1CCN(c2c(C(C)C)cccc2C(C)C)[C]1=[Cu+]=[C]1N(c2c(C(C)C)cccc2C(C)C)CCN1c1c(C(C)C)cccc1C(C)C.F[B-](F)(F)F [Compound 9a] | 11.6 | 840 | 110 | 2.2 | 240 | 810 | 7.3 | 11.2 | 72 | 14.3 | 1040 | – | increase in intracellular ROS [7]: 61%; increase in intracellular ROS [8]: 99%
10 | CC(C)c1cccc(C(C)C)c1N1CCN(c2c(C(C)C)cccc2C(C)C)[C]1=[Ag+]=[C]1N(c2c(C(C)C)cccc2C(C)C)CCN1c1c(C(C)C)cccc1C(C)C.F[B-](F)(F)F [Compound 10a] | 79.5 | 2840 | 92 | 2.4 | 218 | 560 | 6.1 | 15.7 | 36 | 162.2 | 5790 | did not significantly induce | intracellular ROS induction compared to untreated control (in words) [7]: No significant ROS induction
11 | CC(C)c1cccc(C(C)C)c1N1C=[N+]([C@@H](C)c2ccccc2)C[C@@H]1C(C)(C)C [Lb] | 22.7 | – | – | 2.0 | – | – | – | – | – | 26.1 | – | – | IC50 ([1]; Homo sapiens, MES-SA): 41700 nM; IC50 ([2]; Mus musculus): 4950 nM; IC50 ([3]; Mus musculus): 9690 nM; IC50 ([5]; Homo sapiens, MES-SA): 1830 nM; IC50 ([6]; Homo sapiens, MES-SA/Dx5): 47900 nM
12 | CC(C)c1cccc(C(C)C)c1N1C=[N+](c2c(C(C)C)cccc2C(C)C)CC1 [SIPr, reference compound] | 10.9 | – | – | 3.4 | – | – | 2.0 | 2.3 | – | 20.9 | – | did not significantly induce | IC50 ([1]; Homo sapiens, MES-SA): 55000 nM; IC50 ([2]; Mus musculus): 5920 nM; intracellular ROS induction compared to untreated control (in words) [7]: No significant ROS induction; IC50 ([3]; Mus musculus): 20300 nM; IC50 ([4]; Homo sapiens): 11700 nM; IC50 ([5]; Homo sapiens, MES-SA): 5050 nM; IC50 ([6]; Homo sapiens, MES-SA/Dx5): 106000 nM
